Consider 9 compounds from ChEMBL document CHEMBL1641578, “Design and synthesis of 3-(azol-1-yl)phenylpropanes as microbicidal spermicides for prophylactic contraception” (Bioorg Med Chem Lett, 2011).

In general, MIC refers to the smallest concentration in the dilution series that meets the test's criterion for growth inhibition.

For data set [1], the system named is Candida albicans. As to the kind of experiment: Antifungal activity against Candida albicans MTCC-183 after 48 hrs by broth microdilution assay. The following applies: MTCC-183, 48 h. It counts as functional. (In broth dilution the organism is exposed to a series of concentrations in liquid medium.)
The subject of data set [2] is Candida albicans. As to the kind of experiment: Antifungal activity against Candida albicans isolate CDRI after 48 hrs by broth microdilution assay. It counts as functional.
The test system of data set [3] is HeLa. Nature of the data set: Cytotoxicity against human HeLa cells at 200 ug/ml after 24 hrs by MTT based colorimetric assay. The data set is classed as cell-based.
Data set [4] can be described thus: Toxicity against Lactobacillus acidophilus at 200 ug/ml after 24 hrs by microplate reader.
In data set [5] the test system is Spermatozoa. As to the kind of experiment: Spermicidal activity against human spermatozoa assessed as immobilization measured for 60 seconds by visual scoring. It counts as functional. On the set-up: concentration or dose not given beside the values.
In data set [6] the test system is Candida parapsilosis. As to the kind of experiment: Antifungal activity against Candida parapsilosis after 48 hrs by broth microdilution assay. It counts as functional. Particulars: Lodderomyces parapsilosis.
Data set [7] relates to Candida albicans. Nature of the data set: Antifungal activity against Candida albicans after 48 hrs by broth microdilution assay. The data set is classed as functional.
Data set [8] deals with Candida albicans. As to the kind of experiment: Antifungal activity against Candida albicans NCIM-3557 after 48 hrs by broth microdilution assay. The data set is classed as functional. The following applies: NCIM-3557, 48 h.
Data set [9] relates to Trichomonas vaginalis. As to the kind of experiment: Antitrichomonas activity against Trichomonas vaginalis after 48 hrs by trypan blue exclusion assay. It counts as functional.

≈ marks a conversion by molar mass, not a printed value.

Take `O=[N+]([O-])c1cn(C/C=C/c2ccccc2)cn1`: the MIC in data set [1] was more than 50 µg/mL; in [2] it was more than 50 µg/mL; in [6], more than 50 µg/mL; in data set [7], more than 50 µg/mL; in [8] it was more than 50 µg/mL; in [9] it was 25 µg/mL (≈ 109 µM). Further, the Activity entry in data set [3] was “Non-toxic”; in data set [4] it was “Non-toxic”; in [5], 80%.
Turning to `CCCCCCCCCc1ccc(OCCOCCOCCOCCOCCOCCOCCOCCOCCO)cc1` [NONOXYNOL 9], the MIC in data set [1] is more than 50 µg/mL; in [2] it was more than 50 µg/mL; in data set [6] it was 50 µg/mL (≈ 81.1 µM); in data set [7] it was more than 50 µg/mL; in data set [8] it was more than 50 µg/mL; in data set [9] it was 37.4 µg/mL (≈ 60.6 µM). Further, the Activity result was “Non-toxic” in data set [3], “Non-toxic” in [4] and 100% in data set [5].
As to `Cc1nccn1CCC(O)c1ccccc1` (stereo unspecified), the MIC in data set [1] was more than 50 µg/mL; in data set [2], more than 50 µg/mL; in data set [6], more than 50 µg/mL; in data set [7], more than 50 µg/mL; in [8], more than 50 µg/mL; in [9], more than 200 µg/mL. Besides, the Activity entry in data set [3] was “Non-toxic”; in data set [4], “Non-toxic”; in [5] it was 100%.
Consider `O=C(CCn1nnc2ccccc21)c1ccccc1`, for which the MIC in [1] was more than 50 µg/mL; in data set [2], more than 50 µg/mL; in data set [6] it was 50 µg/mL (≈ 199 µM); in [7] it was more than 50 µg/mL; in [8], 50 µg/mL (≈ 199 µM); in data set [9], 200 µg/mL (≈ 796 µM). For the same compound, the Activity entry in data set [3] is “Non-toxic”; in [4], “Non-toxic”; in data set [5] it was 80%.
For the compound `OC(CCn1nnc2ccccc21)c1ccccc1` (stereo unspecified), the MIC is more than 50 µg/mL in data set [1]; 50 µg/mL (≈ 197 µM) in data set [2]; more than 50 µg/mL in data set [6]; more than 50 µg/mL in data set [7]; more than 50 µg/mL in data set [8]; more than 200 µg/mL in data set [9]. For the same compound, the Activity entry was “Non-toxic” in data set [3], “Non-toxic” in data set [4] and 100% in data set [5].
In the case of `O=C(CCn1cnc2ccccc21)c1ccccc1`, the MIC in data set [1] was more than 50 µg/mL; in [2], 25 µg/mL (≈ 99.9 µM); in data set [6], 50 µg/mL (≈ 200 µM); in [7] it was 25 µg/mL (≈ 99.9 µM); in data set [8], 50 µg/mL (≈ 200 µM); in [9], 200 µg/mL (≈ 799 µM). Moreover, the values for the Activity result in [3], in [4] and in [5] were “Non-toxic”, “Non-toxic” and 100%, respectively.
Regarding `Cc1ncc([N+](=O)[O-])n1C/C=C/c1ccccc1`, the minimal inhibitory concentration (MIC) is more than 50 µg/mL in [1]; more than 50 µg/mL in [2]; more than 50 µg/mL in [6]; 50 µg/mL (≈ 206 µM) in data set [7]; more than 50 µg/mL in [8]; 25 µg/mL (≈ 103 µM) in [9]. Moreover, the Activity result in data set [3] was “Non-toxic”; in data set [4] it was “Non-toxic”; in data set [5], 90%.
As for `O=[N+]([O-])c1cn(CCC(Oc2ccc(C(F)(F)F)cc2)c2ccccc2)cn1` (stereo unspecified), the minimum inhibitory concentration (MIC) in [1] is more than 50 µg/mL; in [2], more than 50 µg/mL; in data set [6], more than 50 µg/mL; in [7], more than 50 µg/mL; in data set [8], more than 50 µg/mL; in data set [9], 12.5 µg/mL (≈ 31.9 µM). In addition, the Activity entry is on record as “Non-toxic” in [3], “Non-toxic” in [4] and 40% in data set [5].
On to `O=C(CCn1cnc([N+](=O)[O-])c1)c1ccccc1`, for which the MIC in [1] was more than 50 µg/mL; in data set [2], 50 µg/mL (≈ 204 µM); in [6], more than 50 µg/mL; in data set [7] it was 50 µg/mL (≈ 204 µM); in [8], more than 50 µg/mL; in [9], 25 µg/mL (≈ 102 µM). Also, the Activity entry was “Non-toxic” in data set [3], “Non-toxic” in [4] and 100% in data set [5].
